From patent publication US20090221594A1, “STABLE PHARMACEUTICAL COMPOSITIONS OF 5, 10 METHYLENETRAHYDROFOLATE” (priority 2005, published 2009)

Experiments:
Type in all cases: physicochemical
[1] = Solubility of 5,10-MTHF in water
Method: (§1) 10 ml sterile water was added to the reference formulation lyophile of 5,10-MTHF and to each of the test formulation lyophiles to give a final concentration of 10 mg/ml (this dissolution volume and concentration corresponds to the most current recommended clinical use guidelines for 5,10-MTHF for cancer therapy). The nonformulated 5,10-MTHF was dissolved in water to a concentration of 6 mg/ml. The lower concentration of nonformulated 5,10-MTHF was due to the fact that nonformulated 5,10-MTHF has a maximum solubility in water of approximately 6 mg/ml (when dissolved in a trisodium citrate, 5,10-MTHF has a much higher (>10 mg/ml) solubility). Samples were stored at room temperature under ambient air conditions to mimic as close as possible expected real-world use.

[2] = pH time course following dissolution in water; conditions: for pH following dissolution in water: room temperature, ambient air
Method: as §1
The pH of 5,10-MTHF dissolved in water was measured at multiple time points using a digital pH meter.

[3] = 5,10-MTHF stability following dissolution in water by HPLC; conditions: for % Normalized Purity of 5,10-MTHF: room temperature
Method: as §1
The stability of 5,10-MTHF dissolved in water was measured by HPLC. Data is reported as the normalized purity of 5,10-MTHF based on the starting purity according to the following formula: % Normalized Purity=(% 5,10-MTHF Time X)÷(% 5,10-MTHF Time 0)×(100)
5,10-MTHF stability kinetics were estimated by linear regression analysis (GraphPad Prism software).

solubility when dissolved in trisodium citrate ([1]; dissolved in a trisodium citrate): > 10 mg/mL
maximum solubility in water ([1]; nonformulated, water): approximately 6 mg/ml
pH following dissolution in water ([2]; 0 hours): 6.88
pH following dissolution in water ([2]; 0.25 hours): 6.89
pH following dissolution in water ([2]; 0.5 hours): 6.87
pH following dissolution in water ([2]; 0.75 hours): 6.85
pH following dissolution in water ([2]; 1 hour): 6.83
pH following dissolution in water ([2]; 2 hours): 6.77
pH following dissolution in water ([2]; 4 hours): 6.80
pH following dissolution in water ([2]; 6 hours): 6.83
pH following dissolution in water ([2]; 8 hours): 6.81
pH following dissolution in water ([2]; 24 hours): 6.79
pH following dissolution in water (approximate, text summary) ([2]; starting and steady state pH over 24 hours): ~6.9
% Normalized Purity of 5,10-MTHF ([3]; 0 hours after dissolution in water): 100.0%
% Normalized Purity of 5,10-MTHF ([3]; 0.5 hours after dissolution in water): 94.9%
% Normalized Purity of 5,10-MTHF ([3]; 1 hour after dissolution in water): 92.4%
% Normalized Purity of 5,10-MTHF ([3]; 2 hours after dissolution in water): 90.3%
% Normalized Purity of 5,10-MTHF ([3]; 4 hours after dissolution in water): 85.9%
% Normalized Purity of 5,10-MTHF ([3]; 8 hours after dissolution in water): 77.8%
% Normalized Purity of 5,10-MTHF ([3]; 12 hours after dissolution in water): 69.6%
% Normalized Purity of 5,10-MTHF ([3]; 18 hours after dissolution in water): 55.1%
% Normalized Purity of 5,10-MTHF ([3]; 24 hours after dissolution in water): 44.9%
Linear Regression Degradation Rate Following Dissolution in Water ([3]; slope of best-fit line, 0-24 hours): −2.2 % Purity/Hours
SMILES: Nc1nc2c(c(=O)[nH]1)N1CN(c3ccc(C(=O)N[C@@H](CCC(=O)O)C(=O)O)cc3)CC1CN2 (some centres unmarked) [Nonformulated, 5,10-methylenetetrahydrofolate]
